{"source": "patent US7635464B2", "about": "“Selective targeting of apoptotic cells” (New South Innovations Pty Limited, priority 2001, dated 2009)", "key": {"HT1080 cells [1]": {"test_system": "HT1080 cells", "assay": "Flow cytometry of GSAO- and annexin V-labeled cells", "format": "cell-based, human", "description": "HT1080 cells were treated for 20 h with 1 μg.mL^−1 camptothecin (Calbiochem, San Diego, Calif.), then detached with PBS containing 2.5 mM EDTA and combined with cells that had detached during incubation. The cells were washed twice with annexin V binding buffer (10 mM Hepes, 140 mM NaCl, 2.5 mM CaCl2, pH 7.4), and 2×10^5 cells per treatment were incubated in 100 μL annexin V binding buffer containing 10 μM GSAO-F or GSAA-F for 15 min at room temperature with shaking. The cells were washed twice, then incubated for 15 min in 100 μL annexin V binding buffer containing 5 μl phycoerythrin-conjugated annexin V (annexin V-PE) (PharMingen, San Diego, Calif.) and 1 μl of a 100 μg.mL^−1 solution of propidium iodide (Molecular Probes, Eugene, Oreg.). The total volume was then made up to 500 μl with annexin V binding buffer, and the samples were transferred to ice. Flow cytometry was performed using a FACSstar flow cytometer (Beckton Dickson). Results are derived from 10^4 cells per sample. To test the effect of caspase inhibition on to GSAO-F uptake, cells were treated with camptothecin in the absence or presence of 10 μg.mL^−1 Z-VAD-FMK (carbobenzoxy-valyl-alanyl-aspartyl-[O-methyl]-fluoromethylketone) (Calbiochem-Novabiochem, San Diego, Calif.), then detached, washed and incubated in annexin V binding buffer containing 10 μM GSAO-F for 15 min. The cells were washed twice and subjected to flow cytometry."}, "HT1080 cells [2]": {"test_system": "HT1080 cells", "assay": "Confocal microscopy of GSAO- and annexin V-labelled cells", "format": "cell-based, human", "settings": "camptothecin-treated; 10 μM GSAO-F", "description": "HT1080 cells were treated for 20 h with 1 μg.mL^−1 camptothecin, then detached with PBS containing 10 mM EDTA, washed with annexin V binding buffer, and incubated for 15 min in annexin V binding buffer containing 10 μM GSAO-F and 1:20 (v/v) Alexa594conjugated annexin V (Molecular Probes, Eugene, Oreg.). The cells were then washed twice with annexin V binding buffer and pipetted onto a microscope slide. Transverse cell sections were captured using an Olympus BX60 microscope and an Optiscan F900e confocal unit and software (Optiscan, Notting Hill, Austrlia)."}, "[3]": {"test_system": "human BxPC-3 pancreatic carcinoma tumours", "assay": "In vivo near-infrared imaging of BxPC-3 tumours", "parameters": "species or system SCID mice", "settings": "0.8 mg/kg S.C.", "description": "(§1) C57BL/6 (Jackson Labs, Bar Harbor, ME) mice bearing S.C. Lewis lung tumours, SCID (Massachusetts General Hospital, Boston, Mass.) bearing S.C. BxPC3 tumours or TRAMP (Greenberg et al., 1995) mice were given 0.8 mg/kg GSAO-Cy™5.5, GSAA-Cy™5.5 or Cy™5.5 dye alone in 0.1 mL of PBS containing 20 mM glycine by S.C. injection in the right hind flank. The S.C. tumours were established in the proximal dorsum.\n(§2) The imaging system utilised a Leica Microsystems fluorescence microscope (Allendale, N.J.) with a 100 W halogen lamp source and a filter system for CY™5.5 (Chroma Technology, Brattleboro, Vt.). Anaesthetised mice were restrained in a light proof box and fluorescence detected by a 12-bit monochrome charged coupled device (Photometrics, Tuscon, Ariz.). Exposure time was 8 seconds with images digitally acquired as 16-bit Tiff files in IPLab (Scanalytics, Fairfax, Va.). White light images of the tumours were also acquired."}, "[4]": {"test_system": "murine Lewis lung tumours", "assay": "In vivo near-infrared imaging of Lewis lung tumours", "parameters": "species or system C57BL/6 mice", "settings": "0.8 mg/kg S.C.", "description": "as §1, §2"}, "HT1080 cells [5]": {"test_system": "HT1080 cells", "assay": "Labelling of cells with GSAO-B (lysate SDS-PAGE, avidin-peroxidase blot, PDI Western blot)", "format": "cell-based, human", "settings": "5-fold molar excess (50 μM) of dimercaptopropanol", "description": "HT1080 cells were for 20 h with 1 μg.mL^−1 camptothecin and labeled with 10 μM GSAO and annexin V-PE as described above for labelling with GSAO-F and annexin V-PE. Cells were sorted on the basis of their annexin V-PE fluorescence, washed three times with PBS and 4×10^4 cells were lysed in 40 μL of RIPA buffer (50 mM Tris-HCl, 0.5 M NaCl, 1% Triton X-100, 1% sodium deoxycholate, 0.1% SDS, 10 μM leupeptin, 10 μM aprotinin, 2 mM phenylmethylsulfonyl fluoride, 5 mM EDTA, pH 8.0) at 4° C. Equal amounts of lysate were electrophoresed on an 8-16% gradient SDS-polyacrylamide gel (Gradipore, Sydney), transferred to […] (PVDF) membrane (Millipore, Bedford, Mass.) and biotinylated proteins were detected with a 1:2000 dilution of avidin-peroxidase (Molecular Probes, Eugene, Oreg.). To identify proteins that had incorporated GSAO-B, 20 μl of RIPA lysate was incubated with 5 μl streptavidin-dynabeads (Dynal Biotech, Oslo, Norway) for 15 min at 4° C. The beads were then washed twice with RIPA buffer, resuspended in 20 μl SDS-PAGE loading buffer, resolved on SDS-PAGE, transferred to polyvinylidene difluoride membrane, and the PDI was detected by Western blot using 2 μg.mL^−1 of anti-PDI polyclonal antibodies (Donoghue et al., 2000) and 1:2000 dilution of goat anti-rabbit peroxidase-conjugated antibodies (Dako Corporation, Carpinteria, Calif.). […]"}}, "note": "Residues, ends and D or L forms follow the SMILES beside them. *: point of attachment. Cbz = O=C(OCc1ccccc1)*; CH2F = FC*", "data": [{"molecule": "O=[As]c1ccc(NC(=O)CSC[C@H](NC(=O)CC[C@H](NC(=O)CCSCC(=O)Nc2ccc(-c3c4ccc(=O)cc-4oc4cc(O)ccc34)c(C(=O)O)c2)C(=O)O)C(=O)NCC(=O)O)cc1", "note": "(some centres unmarked) [GSAO-F]", "values": [{"measurement": "increase in the proportion of cells whose fluorescein fluorescence was greater than 1027 units", "setting": "HT1080 cells [1]; 10 μM label, 15 min, camptothecin-treated vs untreated cells", "result": 8.6, "unit": "fold"}, {"measurement": "mean fluorescein fluorescence", "setting": "HT1080 cells [1]; camptothecin-treated cell population, 10 μM label", "result": 1400, "unit": "units"}, {"measurement": "mean fluorescein fluorescence", "setting": "HT1080 cells [1]; untreated cells, 10 μM label", "result": 255, "unit": "units"}, {"measurement": "binding to apoptotic and dead cells", "setting": "HT1080 cells [1]; with annexin V-PE and propidium iodide", "result": "bound to both apoptotic and dead cells"}, {"measurement": "distribution in annexin V-positive cells", "setting": "HT1080 cells [2]", "result": "distributed in the cytoplasm"}, {"measurement": "fluorescence in cells that did not label with annexin V", "setting": "HT1080 cells [2]", "result": "negligible"}]}, {"molecule": "Cy™5.5", "values": [{"measurement": "tumour labelling at 24 hours", "setting": "[3]", "result": "Neither GSAA-Cy™5.5 (FIG. 11d(B)) nor Cy™5.5 (FIG. 11d(D)) labelled BxPC3 tumours"}, {"measurement": "labelling of Lewis lung tumours by controls", "setting": "[4]", "result": "Neither GSAA-Cy™5.5 nor Cy™5.5 labelled"}]}, {"molecule": "CC[C@@]1(O)C(=O)OCc2c1cc1n(c2=O)Cc2cc3ccccc3nc2-1", "note": "[camptothecin, reference compound]", "values": [{"measurement": "increase in the proportion of cells with phycoerythrin fluorescence greater than 100 fluorescence units (annexin V-positive)", "setting": "HT1080 cells [1]; camptothecin 1 μg.mL−1, 20 h vs untreated", "result": 7.3, "unit": "fold"}]}, {"molecule": "OCC(S)CS", "note": "(centres unmarked) [dimercaptopropanol, 2,3-dimercaptopropanol, reference compound]", "values": [{"measurement": "effect on labelling of apoptotic cellular proteins by GSAO-B", "setting": "HT1080 cells [5]", "result": "ablated"}]}, {"molecule": "COC(=O)C[C@H](NC(=O)[C@H](C)NC(=O)[C@@H](NC(=O)OCc1ccccc1)C(C)C)C(=O)CF", "note": "[Z-VAD-FMK, carbobenzoxy-valyl-alanyl-aspartyl-[O-methyl]-fluoromethylketone, reference compound] (Cbz-Val-Ala-Asp(OMe)-CH2F)", "values": [{"measurement": "effect on the increase in GSAO-F positive cells seen with camptothecin treatment", "setting": "HT1080 cells [1]; Z-VAD-FMK 10 μg.mL−1 during camptothecin treatment", "result": "substantially blocked"}]}]}
